Measurements taken from patent publication US10456407B2, “Combination therapy for treating cancer” (Epizyme, Inc., priority 2015, dated 2019).

What was measured:
Type in all cases: cell-based
RL cells = assay: RT2 Glucocorticoid signaling PCR array, RL (Table 4e, printed RI) cell line; settings: 4 days, Cpd44 1 uM, Pred 10-fold below 4-day IC50, vs DMSO, B2M-normalized
Source text: (§1) Expression levels of (A). Sestrin; (B). TNF and (C) GILZ normalized to DMSO controls for each cell line with the indicated single agent or combination.

SU-DHL4 cells = assay: RT2 Glucocorticoid signaling PCR array, SU-DHL4 (SUDHL4) cell line (Table 4f); settings: SUDHL4, 4 days, vs DMSO
Source text: as §1

OCI-Ly19 cells = assay: RT2 Glucocorticoid signaling PCR array, OCI-LY19 (Table 4a, printed OCT) cell line; settings: vs DMSO

Structure (SMILES): CCN(c1cc(-c2ccc(CN3CCOCC3)cc2)cc(C(=O)NCc2c(C)cc(C)[nH]c2=O)c1C)C1CCOCC1 [Compound 44]
- ΔΔCT (RL cells; AMPD3 mRNA): −0.885
- ΔΔCT (RL cells; ASPH mRNA): 0.476
- ΔΔCT (RL cells; BCL6 mRNA): 0.263
- ΔΔCT (RL cells; FOSL2 mRNA): −1.274
- ΔΔCT (RL cells; TSC22D3 mRNA): 0.189
- ΔΔCT (RL cells; ZFP36 mRNA): −0.036
- ΔΔCT, BCL6 (SU-DHL4 cells): −1.019
- ΔΔCT, CEBPB (SU-DHL4 cells): 0.776
- ΔΔCT, DDIT4 (SU-DHL4 cells): −1.317
- ΔΔCT, DUSP1 (SU-DHL4 cells): −0.449
- ΔΔCT, NFKBIA (SU-DHL4 cells): −0.388
- ΔΔCT, PDP1 (SU-DHL4 cells): −0.911
- ΔΔCT, POU2F2 (SU-DHL4 cells): −0.539
- ΔΔCT, RASA3 (SU-DHL4 cells): −0.731
- ΔΔCT, SPHK1 (SU-DHL4 cells): −1.066
- ΔΔCT, STAT5A (SU-DHL4 cells): −0.587
- ΔΔCT, TNF (SU-DHL4 cells): −2.458
- ΔΔCT, VDR (SU-DHL4 cells): −2.155
- ΔΔCT, VLDLR (SU-DHL4 cells): 0.438
- ΔΔCT, ZNF281 (SU-DHL4 cells): −0.612
- ΔΔCT, ADARB1 (OCI-Ly19 cells; gene ADARB1): −0.789
- ΔΔCT, AK2 (OCI-Ly19 cells; gene AK2): −0.017
- ΔΔCT, ANGPTL4 (OCI-Ly19 cells; gene ANGPTL4): −0.305
- ΔΔCT, ARID68 (OCI-Ly19 cells; gene ARID68): 0.232
- ΔΔCT, ASPH (OCI-Ly19 cells; gene ASPH): −0.584
- ΔΔCT, ATF4 (OCI-Ly19 cells; gene ATF4): 0.124
- ΔΔCT, BCL6 (OCI-Ly19 cells; gene BCL6): −1.395
- ΔΔCT, CEBPB (OCI-Ly19 cells; gene CEBPB): 0.390
- ΔΔCT COL4A2 (OCI-Ly19 cells; gene COL4A2): 0.309
- ΔΔCT, CREB3L4 (OCI-Ly19 cells; gene CREB3L4): −0.376
- ΔΔCT CTGF (OCI-Ly19 cells; gene CTGF): −0.052
- ΔΔCT, DDIT4 (OCI-Ly19 cells; gene DDIT4): −0.749
- ΔΔCT, DUSP1 (OCI-Ly19 cells; gene DUSP1): −0.395
- ΔΔCT, EHD3 (OCI-Ly19 cells; gene EHD3): −1.081
- ΔΔCT, FK8PS (OCI-Ly19 cells; gene FK8PS): −0.319
- ΔΔCT, FOSL2 (OCI-Ly19 cells; gene FOSL2): −0.226
- ΔΔCT, GDPD1 (OCI-Ly19 cells; gene GDPD1): −0.020
- ΔΔCT GLUL (OCI-Ly19 cells; gene GLUL): −0.745
- ΔΔCT, H6PD (OCI-Ly19 cells; gene H6PD): −0.915
- ΔΔCT, HNRPLL (OCI-Ly19 cells; gene HNRPLL): −0.346
- ΔΔCT, IL1RN (OCI-Ly19 cells; gene IL1RN): −1.244
- ΔΔCT, KLF9 (OCI-Ly19 cells; gene KLF9): −1.215
- ΔΔCT, KLF13 (OCI-Ly19 cells; gene KLF13): −0.452
- ΔΔCT, LOX (OCI-Ly19 cells; gene LOX): −0.733
- ΔΔCT MERTK (OCI-Ly19 cells; gene MERTK): −0.805
- ΔΔCT MTZA (OCI-Ly19 cells; gene MTZA): −0.118
- ΔΔCT, NFKBIA (OCI-Ly19 cells; gene NFKBIA): 0.019
- ΔΔCT, NR3C1 (OCI-Ly19 cells; gene NR3C1): −0.023
- ΔΔCT PDCC7 (OCI-Ly19 cells; gene PDCC7): 0.024
- ΔΔCT PDGFRB (OCI-Ly19 cells; gene PDGFRB): 0.934
- ΔΔCT, PDP1 (OCI-Ly19 cells; gene PDP1): −0.518
- ΔΔCT, PIK3R1 (OCI-Ly19 cells; gene PIK3R1): −0.274
- ΔΔCT, PLEKHF1 (OCI-Ly19 cells; gene PLEKHF1): −0.736
- ΔΔCT, POU2F1 (OCI-Ly19 cells; gene POU2F1): −0.120
- ΔΔCT, POU2F2 (OCI-Ly19 cells; gene POU2F2): 0.031
- ΔΔCT, RASA3 (OCI-Ly19 cells; gene RASA3): −0.075
- ΔΔCT, RHOB (OCI-Ly19 cells; gene RHOB): −1.378
- ΔΔCT, SESN1 (OCI-Ly19 cells; gene SESN1): −0.253
- ΔΔCT, SGK1 (OCI-Ly19 cells; gene SGK1): −0.458
- ΔΔCT, SLC10A6 (OCI-Ly19 cells; gene SLC10A6): −1.185
- ΔΔCT, SLC19A2 (OCI-Ly19 cells; gene SLC19A2): −0.211
- ΔΔCT, SLC22A5 (OCI-Ly19 cells; gene SLC22A5): −0.367
- ΔΔCT, SNTA1 (OCI-Ly19 cells; gene SNTA1): −0.908
- ΔΔCT, SPHK1 (OCI-Ly19 cells; gene SPHK1): 0.016
- ΔΔCT, STAT5A (OCI-Ly19 cells; gene STAT5A): 0.113
- ΔΔCT, STAT5B (OCI-Ly19 cells; gene STAT5B): −0.121
- ΔΔCT, TNFAIP3 (OCI-Ly19 cells; gene TNFAIP3): 0.317
- ΔΔCT, TSC22D3 (OCI-Ly19 cells; gene TSC22D3): −0.671
- ΔΔCT, USP2 (OCI-Ly19 cells; gene USP2): −2.822
- ΔΔCT, USPS4 (OCI-Ly19 cells; gene USPS4): 0.165
- ΔΔCT, VDR (OCI-Ly19 cells; gene VDR): −0.553
- ΔΔCT, ZFP36 (OCI-Ly19 cells; gene ZFP36): 0.427
- ΔΔCT, ZHX3 (OCI-Ly19 cells; gene ZHX3): −0.394
- ΔΔCT, ZNF281 (OCI-Ly19 cells; gene ZNF281): 0.531
